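1) Cells in 96-well plates. 2) Compound, 48 h, 5 concentrations. 3) Linear interpolation between surrounding doses. 4) Unreached endpoint = highest concentration. GI50 marks 50% less growth. At the TGI there is no net growth.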
Columns and labels:
Assay in all cases: DTP human tumour cell line panel, 48 h
[1] = system: MOLT-4 leukemia
[2] = system: SF-268 CNS
[3] = system: 786-0 renal
[4] = system: IGROV1 ovarian
[5] = system: SNB-75 CNS
[6] = system: TK-10 renal
[7] = system: RXF 393 renal
[8] = system: M14 melanoma
[9] = system: HS 578T breast
[10] = system: MDA-MB-231 breast

Row | SMILES | TGI [1] [µM] | TGI [2] [µM] | TGI [3] [µM] | TGI [4] [µM] | TGI [5] [µM] | TGI [6] [µM] | TGI [7] [µM] | TGI [8] [µM] | GI50 [1] [µM] | GI50 [2] [µM] | GI50 [4] [µM] | GI50 [5] [µM] | GI50 [9] [µM] | TGI [9] [µM] | GI50 [6] [µM] | GI50 [10] [µM] | TGI [10] [µM]
1 | CCCCc1c2cnccc2c(CCCC)c2c1[nH]c1ccccc12 | 23.7 | 47.1 | 24.1 | 30.3 | 23.6 | 34.6 | 24.9 | 41.1 | – | – | – | – | – | – | – | – | –
2 | O=C(Nc1ccccc1-c1nn(CN2CCNCC2)c(=S)n(CN2CCNCC2)c1=O)C(F)(F)F | > 100 | 41.8 | 35.1 | 46.5 | 52.9 | 61.1 | 30.3 | 31.1 | – | – | – | – | – | – | – | – | –
3 | C=CCN1/C(=C2\SC(=S)N(c3ccc(C)cc3)C2=O)Sc2c1ncn(C)c2=O | > 100 | > 100 | > 100 | > 100 | > 100 | > 100 | – | > 100 | – | – | – | – | – | – | – | – | –
4 | N/N=C(\c1nc2ccc(Cl)cc2[nH]c1=O)C(O)c1ccc(Cl)c(Cl)c1 (stereo not given) | > 100 | > 100 | > 100 | > 100 | > 100 | > 100 | > 100 | > 100 | – | – | – | – | – | – | – | – | –
5 | COc1ccc(C(=O)CC2=Nc3nnc(CCCCCCCc4nnc5n4C(=O)C(CC(=O)c4ccc(OC)cc4)=N5)n3C2=O)cc1 | > 100 | > 100 | > 100 | > 100 | > 100 | > 100 | > 100 | > 100 | – | – | – | – | – | – | – | – | –
6 | Cc1cc(C)c(C(=O)O)c(SSc2cc(C)cc(C)c2C(=O)O)c1 | > 100 | > 100 | > 100 | – | – | > 100 | > 100 | – | – | – | – | – | – | – | – | – | –
7 | CCCN(CCC)C(=O)c1nc(N)nc(-c2ccc(OC)cc2)c1-c1ccc(OC)cc1 | > 100 | > 100 | > 100 | > 100 | > 100 | > 100 | – | > 100 | – | – | – | – | – | – | – | – | –
8 | COc1cc(C(=O)O[C@H](C(=O)NCCN(C)CCNC(=O)[C@@H](OC(=O)c2cc(OC)cc3c(C)cccc23)[C@]2(C)CO2)[C@]2(C)CO2)c2cccc(C)c2c1 | 0.153 | 0.929 | 0.179 | – | 1.02 | 1.57 | – | – | < 0.01 | < 0.01 | < 0.0425 | 0.111 | 0.304 | > 100 | 0.348 | 0.264 | 1.58
9 | CC1=NOC(=O)/C1=C/c1ccc([N+](=O)[O-])cc1 | > 100 | > 100 | > 100 | > 100 | > 100 | > 100 | > 100 | > 100 | – | – | – | – | – | – | – | – | –
10 | O=C1CNC(=O)c2[nH]cnc2N1 | > 100 | > 100 | > 100 | > 100 | > 100 | > 100 | > 100 | > 100 | – | – | – | – | – | – | – | – | –
11 | COC(=O)[C@@H](C)[C@H]1CC[C@@](C)(CCC2=C(C)CC3C=C(C)CCC3C2(C)C)OO1 (stereo not given in full) | 2.75 | 3.76 | 0.263 | 3.06 | 2.94 | 3.31 | 2.84 | 3.13 | – | – | – | – | – | – | – | – | –
12 | COC1CCC(OC)C(C2(C3CC(OC)CCC3OC)OC(=O)c3ccccc32)C1 (stereo not given) | 89.3 | > 100 | > 100 | > 100 | > 100 | > 100 | > 100 | > 100 | – | – | – | – | – | – | – | – | –
13 | COc1ccc2oc(-c3ccc(OC)c(OC)c3OC)cc(=O)c2c1 | – | > 100 | > 100 | > 100 | > 100 | > 100 | 93.8 | > 100 | – | – | – | – | – | – | – | – | –
14 | c1ccc(SC23C4C5C6C4C2C6C53)nc1 (stereo not given) | > 100 | > 31.6 | > 100 | > 100 | > 100 | > 100 | – | > 100 | – | – | – | – | – | – | – | – | –
15 | COC(=O)C1CC(OC(C)=O)C=C2C(=O)CCC21 (stereo not given) | 40 | 38.8 | 51 | 82.6 | 48 | 77.5 | 29.8 | 50.2 | – | – | – | – | – | – | – | – | –
16 | COc1cc(C(C)c2cc3c(cc2OCCNC(=O)COc2cc4c(cc2C(C)c2cc(OC)c(OC)c(OC)c2)OCO4)OCO3)cc(OC)c1OC (stereo not given) | 71.8 | > 100 | > 100 | > 100 | > 100 | > 100 | > 100 | > 100 | – | – | – | – | – | – | – | – | –
17 | Nc1ccc(COC(O)CN2CCCCC2)cc1[N+](=O)[O-] (stereo not given) | > 100 | > 100 | > 100 | > 100 | > 100 | > 100 | > 100 | > 100 | – | – | – | – | – | – | – | – | > 100
18 | CCn1c2c(c3ccccc31)[C@@H](c1ccc(Cl)cc1)CC1C(=O)N(c3ccccc3)C(=O)C21 (stereo not given in full) | > 100 | > 100 | > 100 | > 100 | > 100 | > 100 | > 100 | > 100 | – | – | – | – | – | – | – | – | –

Row | SMILES | TGI [1] [µM] | TGI [2] [µM] | TGI [3] [µM] | TGI [4] [µM] | TGI [5] [µM] | TGI [6] [µM] | TGI [7] [µM] | TGI [8] [µM] | GI50 [1] [µM] | GI50 [2] [µM] | GI50 [4] [µM] | GI50 [5] [µM] | GI50 [9] [µM] | TGI [9] [µM] | GI50 [6] [µM] | GI50 [10] [µM] | TGI [10] [µM]
19 | CC(=O)NNc1nc(C)c(C(=O)/C=C/c2ccc(Cl)cc2)s1 | > 100 | > 100 | > 100 | > 100 | > 100 | > 100 | > 100 | – | – | – | – | – | – | – | – | – | –
20 | Cc1nc(N)nc(N)c1CCCc1ccccc1 | > 100 | > 100 | > 100 | > 100 | > 100 | > 100 | – | 64.2 | – | – | – | – | – | – | – | – | –
21 | Cc1ccc(S(=O)(=O)OC(COC(=O)c2ccccc2)C(OS(=O)(=O)c2ccc(C)cc2)C(OS(=O)(=O)c2ccc(C)cc2)C(COC(=O)c2ccccc2)OS(=O)(=O)c2ccc(C)cc2)cc1 (stereo not given) | > 100 | > 100 | > 100 | > 10 | 90 | > 100 | > 100 | > 100 | – | – | – | – | – | – | – | – | –
22 | Cc1ccc2nc3cc(C)c(=O)cc-3sc2c1 | > 100 | > 100 | > 100 | > 100 | 84.9 | > 100 | – | > 100 | – | – | – | – | – | – | – | – | –
23 | Cc1cccc(C)c1N1C(=O)C(=O)C(c2nc3ccccc3s2)/C(=N/NC(=O)c2ccccc2O)C1=O (stereo not given) | > 100 | > 68.8 | > 66 | > 82.2 | 69.5 | > 100 | 17.2 | > 100 | – | – | – | – | – | – | – | – | –
24 | Cc1ccc(S(=O)(=O)c2ccc(C)cc2[N+](=O)[O-])cc1 | > 100 | > 100 | > 100 | > 100 | > 100 | > 100 | > 100 | > 100 | – | – | – | – | – | – | – | – | –
25 | CC(C(=O)c1ccccc1)C1(O)C(=O)Nc2ccc(Cl)cc21 (stereo not given) | – | > 100 | > 100 | > 100 | > 100 | > 100 | > 100 | > 100 | – | – | – | – | – | – | – | – | –
26 | COc1cc(NS(C)(=O)=O)ccc1NCc1c2ccccc2nc2ccccc12 | 35 | > 100 | > 100 | > 100 | > 100 | > 100 | 57.5 | > 100 | – | – | – | – | – | – | – | – | –
27 | CCOC(=O)C(Cc1ccccc1)NC(=O)c1[nH]cnc1/N=N/N(C)C (stereo not given) | > 100 | > 100 | > 100 | > 100 | > 100 | – | – | > 100 | – | – | – | – | – | – | – | – | –
28 | C/C(CC(=O)Nc1ccccc1C)=N/NS(=O)(=O)c1ccc(C)cc1 | > 100 | > 100 | > 100 | > 100 | > 100 | > 100 | > 100 | > 100 | – | – | – | – | – | – | – | – | –
29 | COc1ccc2c(c1OC)C(C(Cl)(Cl)Cl)N1CCc3cc4c(cc3C1=C2)OCO4 (stereo not given) | 80.9 | 91.1 | 55.5 | 98.2 | > 100 | > 100 | – | > 100 | – | – | – | – | – | > 100 | – | – | > 100
30 | COc1ccc2c(c1)NC1(O)c3ccccc3C(=O)C21O (stereo not given) | > 100 | > 100 | > 100 | > 100 | > 100 | > 100 | – | > 100 | – | – | – | – | – | – | – | – | –
31 | O=S(=O)(N=NC=C1c2ccccc2N(O)c2ccccc21)c1ccc(Cl)cc1 | > 100 | > 100 | > 100 | > 100 | 78.2 | > 100 | – | > 100 | – | – | – | – | – | – | – | – | –
32 | Cc1ccc(S(=O)(=O)C2=c3nc4ccccc4cc3=C3C(=O)c4ccccc4C(=O)C32)cc1 (stereo not given) | > 100 | > 100 | > 100 | > 100 | > 100 | > 100 | – | > 100 | – | – | – | – | – | – | – | – | –
33 | Cc1c(Cl)cccc1NC(=O)/C=C/c1ccccc1 | > 100 | > 100 | > 100 | > 100 | > 100 | > 100 | – | > 100 | – | – | – | – | – | > 100 | – | – | 96.3
34 | C=CCC1(C(=O)OC(C)(C)C)C(OC)=C(C(=O)OC(C)(C)C)C2C1C(C(=O)OC(C)(C)C)=C(OC)C2(CC=C)C(=O)OC(C)(C)C (stereo not given) | > 100 | > 100 | > 100 | > 100 | > 100 | > 100 | > 100 | > 100 | – | – | – | – | – | – | – | – | –
35 | C1CN(P2(N3CC3)=NP(N3CC3)(N3CC3)=NP(N3CC3)(N3CC3)=N2)CCO1 (stereo not given) | > 100 | > 100 | > 100 | > 100 | > 100 | > 100 | > 100 | > 100 | – | – | – | – | – | – | – | – | –
36 | CCOC(=O)C1=C(C)N(NC(N)=O)C2(N)N(NC(N)=O)C(C)=C(C(=O)OCC)C12C(=O)OCC (stereo not given) | > 100 | > 100 | > 100 | > 100 | > 100 | – | > 100 | > 100 | – | – | – | – | – | – | – | – | –

— PubChem BioAssay (NCI)
